According to ChEMBL document CHEMBL5465560, “Selectivity Literature for EUbOPEN Chemogenomic Library” (2024):

Columns and labels:
[1] = target: Serine/threonine-protein kinase Nek6 (Homo sapiens) (UniProt Q9HC98); assay: Selectivity interaction (Upstate Kinase Profiler service (Millipore)) EUB0000056c NEK6; conditions: at 1 µM
[2] = target: Macrophage-stimulating protein receptor (Homo sapiens, UniProt Q04912); assay: Selectivity interaction (KinomeScan (DiscoverX)) EUB0001079a MST1R; conditions: at 1 µM
[3] = target: T1, Peregrin (Homo sapiens) (UniProt P55201); assay: Selectivity interaction (Human bromodomain panel (DSF assay)) EUB0000233b BRPF1
T1 sequence (whole entry): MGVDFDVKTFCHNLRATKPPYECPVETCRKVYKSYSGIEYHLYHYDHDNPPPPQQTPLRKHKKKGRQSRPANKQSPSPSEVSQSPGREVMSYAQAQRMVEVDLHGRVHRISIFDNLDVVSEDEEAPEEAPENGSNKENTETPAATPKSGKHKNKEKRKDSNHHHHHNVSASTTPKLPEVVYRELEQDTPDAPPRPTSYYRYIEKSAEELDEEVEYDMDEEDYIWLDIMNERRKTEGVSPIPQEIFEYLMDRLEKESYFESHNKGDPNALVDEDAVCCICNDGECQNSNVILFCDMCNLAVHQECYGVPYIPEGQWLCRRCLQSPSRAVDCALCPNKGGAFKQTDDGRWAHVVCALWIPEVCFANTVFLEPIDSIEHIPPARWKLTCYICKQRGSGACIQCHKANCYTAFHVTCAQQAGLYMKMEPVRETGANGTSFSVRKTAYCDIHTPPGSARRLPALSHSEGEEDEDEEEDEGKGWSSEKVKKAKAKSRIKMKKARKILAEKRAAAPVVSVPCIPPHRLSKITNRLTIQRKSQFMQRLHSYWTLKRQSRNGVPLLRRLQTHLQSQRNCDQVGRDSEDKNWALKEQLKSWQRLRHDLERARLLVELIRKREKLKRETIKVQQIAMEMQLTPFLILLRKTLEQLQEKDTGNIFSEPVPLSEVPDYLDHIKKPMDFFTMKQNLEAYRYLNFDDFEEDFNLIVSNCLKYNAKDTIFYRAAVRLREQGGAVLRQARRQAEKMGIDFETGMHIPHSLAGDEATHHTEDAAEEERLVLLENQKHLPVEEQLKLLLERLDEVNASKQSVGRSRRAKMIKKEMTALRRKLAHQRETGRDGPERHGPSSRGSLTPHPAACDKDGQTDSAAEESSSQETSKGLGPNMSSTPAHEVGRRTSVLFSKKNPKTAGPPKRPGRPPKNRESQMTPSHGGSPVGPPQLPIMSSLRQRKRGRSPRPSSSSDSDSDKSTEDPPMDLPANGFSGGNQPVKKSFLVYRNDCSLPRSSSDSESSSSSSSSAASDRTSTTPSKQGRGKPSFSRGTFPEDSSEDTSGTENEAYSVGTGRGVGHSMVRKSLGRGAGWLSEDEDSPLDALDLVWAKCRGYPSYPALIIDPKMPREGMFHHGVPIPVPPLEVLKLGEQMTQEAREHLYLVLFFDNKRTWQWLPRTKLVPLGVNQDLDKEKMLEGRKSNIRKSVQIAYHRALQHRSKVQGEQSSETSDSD

[4] = target: Dual specificity mitogen-activated protein kinase kinase 1 (Homo sapiens, UniProt Q02750); assay: Selectivity interaction (Kinase panel (KiNativ target engagement assay in Jurkat cells)) EUB0001635a MAP2K1; type: cell-based; conditions: Selectivity number of off-targets 0.0, Selectivity number of targets 233.0, Source Knowledge https://www.sciencedirect.com/science/article/pii/S2451945619300674?via%3Dihub, at 1 µM
[5] = target: Tyrosine-protein kinase Fes/Fps (Homo sapiens) (UniProt P07332); assay: Selectivity interaction (KinaseProfiler screening (Millipore)) EUB0000601a FES; conditions: at 3 µM
[6] = target: Serine/threonine-protein kinase Nek4 (Homo sapiens) (UniProt P51957); conditions: at 10 µM
[7] = target: Tyrosine-protein kinase Fgr (Homo sapiens) (UniProt P09769); assay: Selectivity interaction (KinomeScan (DiscoverX)) EUB0000695a FGR; conditions: at 100 nM
[8] = target: STE20-like serine/threonine-protein kinase (Homo sapiens, UniProt Q9H2G2); assay: Selectivity interaction (KinomeScan (DiscoverX)) EUB0000695a SLK; conditions: at 100 nM
[9] = target: Macrophage colony-stimulating factor 1 receptor (Homo sapiens) (UniProt P07333); assay: Selectivity interaction (KinomeScan (DiscoverX)) EUB0000595a CSF1R; conditions: at 10 µM
[10] = target: Epidermal growth factor receptor (Homo sapiens, UniProt P00533); conditions: at 10 µM
[11] = target: Activin receptor type-2A (Homo sapiens) (UniProt P27037); assay: Selectivity interaction (KinomeScan (DiscoverX)) EUB0000045b ACVR2A
[12] = target: Casein kinase II subunit alpha' (Homo sapiens) (UniProt P19784); assay: Selectivity interaction (Kinase panel (literature)) EUB0001199aCl CSNK2A2; conditions: at 1 µM
[13] = target: Death-associated protein kinase 1 (Homo sapiens, UniProt P53355); assay: Selectivity interaction (KinomeScan (DiscoverX)) EUB0001619a DAPK1; conditions: at 1 µM
[14] = target: Phosphatidylinositol 4-kinase beta (Homo sapiens, UniProt Q9UBF8); assay: Selectivity interaction (ActivX KiNativ screen (ex vivo kinase selectivity in human PBMCs)) EUB0001619a PI4KB; type: cell-based; conditions: PBMC, at 1 µM

Sequence of Activin receptor type-2A (Homo sapiens) (P27037 whole entry): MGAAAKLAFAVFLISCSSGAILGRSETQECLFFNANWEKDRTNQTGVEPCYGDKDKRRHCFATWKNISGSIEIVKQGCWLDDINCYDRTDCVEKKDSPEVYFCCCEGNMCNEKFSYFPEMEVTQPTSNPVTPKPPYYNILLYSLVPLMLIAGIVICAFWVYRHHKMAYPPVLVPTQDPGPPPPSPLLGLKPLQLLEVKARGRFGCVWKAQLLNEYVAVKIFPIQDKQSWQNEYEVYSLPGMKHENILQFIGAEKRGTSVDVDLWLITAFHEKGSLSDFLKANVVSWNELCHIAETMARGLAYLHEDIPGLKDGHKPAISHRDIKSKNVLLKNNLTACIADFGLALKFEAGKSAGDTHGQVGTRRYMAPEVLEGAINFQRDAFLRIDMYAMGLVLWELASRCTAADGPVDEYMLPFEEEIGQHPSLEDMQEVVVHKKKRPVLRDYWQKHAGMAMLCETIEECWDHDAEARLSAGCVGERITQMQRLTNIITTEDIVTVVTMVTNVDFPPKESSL
Sequence of Macrophage colony-stimulating factor 1 receptor (Homo sapiens) (P07333 whole entry): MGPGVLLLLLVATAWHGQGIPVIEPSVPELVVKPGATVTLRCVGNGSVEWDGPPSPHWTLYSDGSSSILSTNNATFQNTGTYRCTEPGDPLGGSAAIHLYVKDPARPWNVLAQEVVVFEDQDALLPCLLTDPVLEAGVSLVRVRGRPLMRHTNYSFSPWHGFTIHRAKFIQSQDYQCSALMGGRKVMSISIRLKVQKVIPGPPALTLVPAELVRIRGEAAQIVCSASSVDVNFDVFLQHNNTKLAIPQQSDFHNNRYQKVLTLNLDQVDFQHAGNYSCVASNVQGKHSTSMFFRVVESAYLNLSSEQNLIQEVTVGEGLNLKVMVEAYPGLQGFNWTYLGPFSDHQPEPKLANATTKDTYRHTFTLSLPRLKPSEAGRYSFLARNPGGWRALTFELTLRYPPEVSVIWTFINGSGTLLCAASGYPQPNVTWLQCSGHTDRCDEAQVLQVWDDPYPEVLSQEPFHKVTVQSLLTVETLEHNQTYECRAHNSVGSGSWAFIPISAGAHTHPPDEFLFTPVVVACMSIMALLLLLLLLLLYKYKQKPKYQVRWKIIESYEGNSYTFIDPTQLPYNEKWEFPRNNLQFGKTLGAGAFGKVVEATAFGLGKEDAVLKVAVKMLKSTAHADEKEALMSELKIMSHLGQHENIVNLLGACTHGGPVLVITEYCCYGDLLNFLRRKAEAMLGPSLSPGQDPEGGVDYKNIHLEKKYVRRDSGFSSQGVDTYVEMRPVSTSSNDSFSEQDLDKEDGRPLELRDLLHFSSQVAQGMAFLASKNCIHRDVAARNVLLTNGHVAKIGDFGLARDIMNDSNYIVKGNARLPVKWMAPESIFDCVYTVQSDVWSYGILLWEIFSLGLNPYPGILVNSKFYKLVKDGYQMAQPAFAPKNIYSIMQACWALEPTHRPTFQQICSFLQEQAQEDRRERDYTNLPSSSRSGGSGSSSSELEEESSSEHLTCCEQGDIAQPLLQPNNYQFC
Sequence of Epidermal growth factor receptor (P00533 whole entry): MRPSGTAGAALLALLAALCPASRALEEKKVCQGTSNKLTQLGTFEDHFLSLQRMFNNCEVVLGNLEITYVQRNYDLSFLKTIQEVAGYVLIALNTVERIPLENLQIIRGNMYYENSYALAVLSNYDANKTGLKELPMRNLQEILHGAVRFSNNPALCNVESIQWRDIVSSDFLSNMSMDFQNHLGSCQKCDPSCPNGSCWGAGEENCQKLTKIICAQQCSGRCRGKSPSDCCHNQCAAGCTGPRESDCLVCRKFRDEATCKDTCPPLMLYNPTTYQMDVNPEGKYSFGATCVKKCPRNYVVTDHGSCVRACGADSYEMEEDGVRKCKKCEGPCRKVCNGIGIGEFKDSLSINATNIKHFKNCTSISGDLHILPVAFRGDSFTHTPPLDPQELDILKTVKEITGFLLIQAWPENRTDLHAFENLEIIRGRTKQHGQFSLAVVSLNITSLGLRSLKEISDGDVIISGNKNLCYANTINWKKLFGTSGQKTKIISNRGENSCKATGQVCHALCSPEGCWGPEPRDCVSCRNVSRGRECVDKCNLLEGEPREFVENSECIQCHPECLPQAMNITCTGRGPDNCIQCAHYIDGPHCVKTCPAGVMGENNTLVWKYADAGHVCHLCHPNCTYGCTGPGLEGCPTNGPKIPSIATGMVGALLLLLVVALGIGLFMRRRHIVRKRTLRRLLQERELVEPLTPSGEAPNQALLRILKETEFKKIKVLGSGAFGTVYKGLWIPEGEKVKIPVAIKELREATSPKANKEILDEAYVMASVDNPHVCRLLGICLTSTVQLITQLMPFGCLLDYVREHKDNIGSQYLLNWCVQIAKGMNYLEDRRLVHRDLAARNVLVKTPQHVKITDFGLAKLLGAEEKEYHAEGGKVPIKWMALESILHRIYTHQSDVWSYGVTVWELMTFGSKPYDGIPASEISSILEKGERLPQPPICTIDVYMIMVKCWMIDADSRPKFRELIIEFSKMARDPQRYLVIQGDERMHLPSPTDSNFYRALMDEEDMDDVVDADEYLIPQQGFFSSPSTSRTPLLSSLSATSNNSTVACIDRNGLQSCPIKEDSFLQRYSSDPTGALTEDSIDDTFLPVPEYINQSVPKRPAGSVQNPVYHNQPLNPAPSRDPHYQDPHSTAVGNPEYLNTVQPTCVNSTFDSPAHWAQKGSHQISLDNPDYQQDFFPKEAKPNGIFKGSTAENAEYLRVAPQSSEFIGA
Sequence of Serine/threonine-protein kinase Nek4 (Homo sapiens) (P51957 whole entry, looked up): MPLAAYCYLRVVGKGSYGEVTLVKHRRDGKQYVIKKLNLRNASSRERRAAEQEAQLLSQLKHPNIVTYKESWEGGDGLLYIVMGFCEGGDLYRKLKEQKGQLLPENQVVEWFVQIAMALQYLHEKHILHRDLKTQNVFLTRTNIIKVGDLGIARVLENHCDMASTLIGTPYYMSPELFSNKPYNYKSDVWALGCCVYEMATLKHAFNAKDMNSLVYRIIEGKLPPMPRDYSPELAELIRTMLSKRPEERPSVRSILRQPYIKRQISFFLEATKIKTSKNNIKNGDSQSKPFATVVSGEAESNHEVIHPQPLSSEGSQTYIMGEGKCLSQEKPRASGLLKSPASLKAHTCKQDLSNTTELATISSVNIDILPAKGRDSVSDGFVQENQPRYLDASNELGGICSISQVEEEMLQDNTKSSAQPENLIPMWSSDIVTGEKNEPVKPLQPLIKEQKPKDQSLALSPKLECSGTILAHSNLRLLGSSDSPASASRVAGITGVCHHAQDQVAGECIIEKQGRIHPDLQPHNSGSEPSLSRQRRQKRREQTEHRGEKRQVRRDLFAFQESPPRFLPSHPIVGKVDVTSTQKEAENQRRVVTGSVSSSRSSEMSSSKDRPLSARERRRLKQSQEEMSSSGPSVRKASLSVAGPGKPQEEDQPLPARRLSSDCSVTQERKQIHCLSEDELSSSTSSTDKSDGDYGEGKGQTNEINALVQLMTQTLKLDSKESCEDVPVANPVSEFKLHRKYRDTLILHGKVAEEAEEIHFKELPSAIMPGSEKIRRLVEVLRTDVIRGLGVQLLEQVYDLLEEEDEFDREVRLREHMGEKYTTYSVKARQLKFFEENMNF
Sequence of STE20-like serine/threonine-protein kinase (Q9H2G2 whole entry, looked up): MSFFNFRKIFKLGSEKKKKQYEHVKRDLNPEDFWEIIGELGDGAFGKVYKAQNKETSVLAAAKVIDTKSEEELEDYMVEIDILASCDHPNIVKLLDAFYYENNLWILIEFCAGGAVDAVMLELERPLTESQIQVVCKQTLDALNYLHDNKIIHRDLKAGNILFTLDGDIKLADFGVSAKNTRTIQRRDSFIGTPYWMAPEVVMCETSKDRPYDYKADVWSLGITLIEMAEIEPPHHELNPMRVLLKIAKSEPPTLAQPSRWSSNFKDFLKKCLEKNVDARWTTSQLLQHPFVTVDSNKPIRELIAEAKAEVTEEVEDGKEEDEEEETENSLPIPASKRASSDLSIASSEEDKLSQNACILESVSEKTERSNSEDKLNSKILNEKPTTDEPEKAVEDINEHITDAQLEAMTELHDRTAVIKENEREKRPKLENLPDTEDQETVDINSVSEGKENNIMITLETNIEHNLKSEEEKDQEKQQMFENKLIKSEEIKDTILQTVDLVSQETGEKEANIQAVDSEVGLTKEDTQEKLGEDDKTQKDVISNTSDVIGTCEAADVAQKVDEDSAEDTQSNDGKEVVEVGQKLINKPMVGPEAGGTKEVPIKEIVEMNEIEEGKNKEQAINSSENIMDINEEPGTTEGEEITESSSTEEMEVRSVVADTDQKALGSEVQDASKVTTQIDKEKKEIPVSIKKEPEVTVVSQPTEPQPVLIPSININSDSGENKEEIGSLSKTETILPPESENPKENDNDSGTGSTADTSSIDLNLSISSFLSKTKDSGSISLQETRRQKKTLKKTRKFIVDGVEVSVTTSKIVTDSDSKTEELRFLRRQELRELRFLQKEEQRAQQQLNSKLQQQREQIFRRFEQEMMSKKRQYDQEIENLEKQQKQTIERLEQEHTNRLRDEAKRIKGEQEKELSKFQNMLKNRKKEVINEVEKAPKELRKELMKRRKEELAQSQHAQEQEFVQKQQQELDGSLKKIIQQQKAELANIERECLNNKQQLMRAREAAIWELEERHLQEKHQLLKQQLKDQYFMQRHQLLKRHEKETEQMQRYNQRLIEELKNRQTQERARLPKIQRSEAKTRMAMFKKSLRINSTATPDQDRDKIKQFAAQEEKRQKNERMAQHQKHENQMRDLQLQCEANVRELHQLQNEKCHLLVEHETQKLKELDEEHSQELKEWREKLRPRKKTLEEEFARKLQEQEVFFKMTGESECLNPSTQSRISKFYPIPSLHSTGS
Sequence of Serine/threonine-protein kinase Nek6 (Homo sapiens) (Q9HC98 whole entry): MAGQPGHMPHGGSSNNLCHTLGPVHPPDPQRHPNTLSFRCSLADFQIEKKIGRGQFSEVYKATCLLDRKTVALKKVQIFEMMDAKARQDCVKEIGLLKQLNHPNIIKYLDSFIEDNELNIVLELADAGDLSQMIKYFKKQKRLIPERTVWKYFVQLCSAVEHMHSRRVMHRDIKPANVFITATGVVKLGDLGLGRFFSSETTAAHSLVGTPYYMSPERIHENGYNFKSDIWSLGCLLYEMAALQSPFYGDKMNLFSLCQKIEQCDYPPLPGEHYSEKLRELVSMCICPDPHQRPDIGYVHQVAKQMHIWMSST

SMILES: Cc1ccc(-c2ccc3c(ccc4sc5c(c43)NC[C@@H](C)NC5=O)n2)cn1
- % of inhibition [1]: -6%

SMILES: Nc1cnc(N2CCc3cc(S(=O)(=O)Nc4c(F)cc(Cl)cc4F)cc(N4CCCC4=O)c32)nc1 [TP-020n]
- % of control [2]: 98%

SMILES: CN(C)CCCOc1ccc(-c2cc(NCCCn3cccn3)nc(S(C)(=O)=O)n2)cc1
- dTM [3]: < 2 K

SMILES: C=CC(=O)Nc1ccc(C(=O)Nc2[nH]nc3c2CN(C(=O)N[C@H](CN(C)C)c2ccccc2)C3(C)C)cc1
- % of engagement [4]: 4.8%

SMILES: CCc1cc(Nc2nccc(-c3c(-c4ccc(OC)c(C(=O)Nc5c(F)cccc5F)c4)nc4ccccn34)n2)c(OC)cc1N1CCC(N2CCN(S(C)(=O)=O)CC2)CC1
- % of inhibition [5]: 82%

SMILES: Cc1cc([C@@H](C)Nc2ccccc2C(=O)O)c2nc(N3CCOCC3)cc(=O)n2c1 [AZD-6482]
- % of control [6]: 61%

SMILES: Cc1cc(F)c(C(=O)Nc2cccc(-c3nncn3C(C)C)n2)cc1-n1cnc(C2CC2)c1
- % of control [7]: 96%
- % of control [8]: 77%

SMILES: COCC(=O)NC/C=C/c1ccc2ncnc(Nc3ccc(Oc4ccc(C)nc4)c(C)c3)c2c1 [CP-724714]
- % of control [9]: 100%
- % of control [10]: 0.2%

SMILES: C=CC(=O)Nc1cc(-n2c(=O)ccc3cnc4ccc(-c5ccc(NS(C)(=O)=O)cc5)cc4c32)ccc1C
- % of control ([11]; at 1 µM): 94%
- % of control ([11]; at 10 µM): 88%

SMILES: CN1Cc2nccc(-c3cn(C)nc3-c3ccc(F)cc3)c2C1=O
- % of inhibition [12]: 2%

SMILES: N#Cc1cccc(-c2c[nH]c3ncnc(N4CCOCC4)c23)c1
- % of control [13]: 89%
- % of inhibition [14]: 5%
